The values below come from patent US20250222009A1, “DINUCLEAR GOLD(I) COMPLEXES FOR TREATING CANCER” (KING FAHD UNIVERSITY OF PETROLEUM AND MINERALS, priority 2024, published 2025).

One experiment concerns MCF-7 (breast cancer). Nature of the experiment: MTT cytotoxicity assay, MCF-7. It is filed as cell-based. The settings on record: 72 h, mean, SD in next cell. The procedure:
(§1) The human epithelial ovarian cancer A2780 cell line and its cisplatin-resistant clone A2780cis were obtained from Sigma-Aldrich (Milano, Italy). A2780cis cells were continuously exposed to 1 μM cisplatin to maintain cisplatin resistance. A549 cells (Human non-small cell lung cancer), MCF7 (metastatic breast cancer), PC3 (highly aggressive metastatic prostate cancer), and MG63 (osteosarcoma) were obtained from the American Type Culture Collection (ATCC). Cells were authenticated in laboratory using the PowerPlex 16 HS System. A2780, A2780cis, and PC3 cells were cultured in RPMI-1640 medium; MG63 and MCF7 cells were cultured in DMEM, and A549 cells were cultured in F12 NUT-MIX. The culture medium contained about 10% fetal bovine serum (FBS) (Gibco, Thermo Fisher Scientific, Monza, Italy), about 1% (v/v) of penicillin (10,000 units/mL)-streptomycin (10 mg/mL), and about 1% (v/v) L-glutamine (200 mM) (all from Sigma-Aldrich). Cells were cultured at 37° C. in a 5% CO2, fully humidified atmosphere.
(§2) 2.5×10^3 (PC3, MG63, MCF7) or 4.0×10^3 (A2780, A2780cis, A549) cells were seeded in 96-well microplates in 100 μL culture medium. Cells, allowed to adhere for 24 h, were then treated in triplicate with increasing concentrations of gold compounds. Cisplatin was included as a reference drug. Cell viability was evaluated using 3-(4,5-dimethylthiazol-2-yl)-2,5-diphenyltetrazolium bromide (MTT) assay (Sigma-Aldrich) after 72 h of treatment. Half maximal inhibitory concentrations (IC50), IC25, and IC75 were calculated using the CalcuSyn software version 2 (Biosoft, Ferguson, MO, USA) (See: Chou, T. C.; Talalay, P. Quantitative Analysis of Dose-Effect Relationships: The Combined Effects of Multiple Drugs or Enzyme Inhibitors. Adv. Enzyme Regul. 1984, 22, 27-55, which is incorporated herein by reference in its entirety). Fold resistance was calculated as the ratio of the IC50 of the A2780cis to that of the parental cell line A2780. Alternatively, cell viability was assayed by crystal violet staining (See: Feoktistova, M.; Geserick, P.; Leverkus, M. Crystal Violet Assay for Determining Viability of Cultured Cells. Cold Spring Harb Protoc 2016, 2016, pdb.prot087379, which is incorporated herein by reference in its entirety). Alternatively, after drug treatment, the culture Medium was removed, cells washed, fixed, and stained, and the Crystal Violet solution lasted 20 minutes (See: Sulaiman, A. A. A.; Casagrande, N.; Borghese, C.; Corona, G.; Isab, A. A.; Ahmad, S.; Aldinucci, D.; Altaf M. Design, Synthesis, and Preclinical Activity in Ovarian Cancer Models of New Phosphanegold(I)—N-Heterocyclic Carbene Complexes. J Med Chem 2022, 65, 14424-14440, which is incorporated herein by reference in its entirety).
In general terms: Formazan colour is commonly taken as a measure of viable cells.

For experiment [1], the system named is A2780cis (cisplatin-resistant clone of A2780). Nature of the experiment: MTT cytotoxicity assay, A2780cis. Format: cell-based, human. The settings on record: for Fold resistance (A2780cis/A2780): IC50 A2780cis/IC50 A2780; for IC50: MTT, 72 h, mean, SD in next cell. The protocol: as §1, §2
For experiment [2], the system named is A2780 ovarian cancer cells. Nature of the experiment: MTT cytotoxicity assay, A2780. It is filed as cell-based, human. The settings on record: 72 h, mean (SD). The procedure: as §1, §2
Experiment [3] has as its system PC3 (androgen-resistant prostate cancer). Nature of the experiment: MTT cytotoxicity assay, PC3. It is filed as cell-based. The conditions noted are these: 72 h, mean (SD). The procedure:
as §1, §2

For the next experiment, the system named is A549 (lung cancer cells). Nature of the experiment: MTT cytotoxicity assay, A549. It is filed as cell-based, human. The settings on record: 72 h, mean (SD). The procedure:
as §1, §2

The next experiment deals with A549-MCTSs. Nature of the experiment: 3D-A549-MCTS viability (PrestoBlue). Format: cell-based, human. The procedure:
To obtain multiple spheroids, 10.0×10^4 A549 cells were seeded in non-adherent conditions on poly-HEMA coated 96 wells (final volume, 200 μL) for four days. After drug treatment (72 h), the cell viability was determined using PrestoBlue Cell Viability Reagent (Thermo Fisher Scientific, Frederick, MD, USA) (See: Casagrande, N.; Celegato, M.; Borghese, C.; Mongiat, M.; Colombatti, A.; Aldinucci, D. Preclinical Activity of the Liposomal Cisplatin Lipoplatin in Ovarian Cancer. Clin Cancer Res 2014, 20, 5496-5506, which is incorporated herein by reference in its entirety).
3D-MCTSs are a model for in vitro drug testing (See: Zanoni, M.; Piccinini, F.; Arienti, C.; Zamagni, A.; Santi, S.; Polico, R.; Bevilacqua, A.; Tesei, A. 3D Tumor Spheroid Models for in Vitro Therapeutic Screening: A Systematic Approach to Enhance the Biological Relevance of Data Obtained. Sci Rep 2016, 6, 19103, which is incorporated herein by reference in its entirety) and to test drug tissue penetration. Thus, the effects of complex 3 in A549-MCTSs were determined by cultivating tumor cells in non-adherent conditions on poly-HEMA coated wells. […] Representative micro-photographs of A549-MCTSs treated with complex 3 (0.3-5 μM) and with cisplatin (15-250 μM) are shown in FIG. 9C.

A further experiment deals with MG-63 (osteosarcoma). Nature of the experiment: MTT cytotoxicity assay, MG-63. The settings on record: 72 h, mean, SD in next cell. Format: cell-based. The procedure: as §1
2.5×10^3 (PC3, MG63, MCF7) or 4.0×10^3 (A2780, A2780cis, A549) cells were seeded in 96-well microplates in 100 μL culture medium. Cells, allowed to adhere for 24 h, were then treated in triplicate with increasing concentrations of gold compounds. Cisplatin was included as a reference drug. Cell viability was evaluated using 3-(4,5-dimethylthiazol-2-yl)-2,5-diphenyltetrazolium bromide (MTT) assay (Sigma-Aldrich) after 72 h of treatment. Half maximal inhibitory concentrations (IC50), IC25, and IC75 were calculated using the CalcuSyn software version 2 (Biosoft, Ferguson, MO, USA) (See: Chou, T. C.; Talalay, P. Quantitative Analysis of Dose-Effect Relationships: The Combined Effects of Multiple Drugs or Enzyme Inhibitors. Adv. Enzyme Regul. 1984, 22, 27-55, which is incorporated herein by reference in its entirety). Fold resistance was calculated as the ratio of the IC50 of the A2780cis to that of the parental cell line A2780. […]

Experiment [4] has as its system A2780 ovarian cancer cells. The settings on record: from J Med Chem 2022, 65, 14424; cited from earlier work.
The subject of experiment [5] is A2780cis (cisplatin-resistant clone of A2780). The conditions noted are these: from J Med Chem 2022, 65, 14424; cited from earlier work.

Usually IC50 stands for the concentration at which inhibition is half-maximal. Turning to `N.N.[Cl][Pt][Cl]` [Cisplatin, reference compound], the IC50 in the experiment with MCF-7 (breast cancer) was found to be 22200 nM; in experiment [1], 10400 nM; in experiment [2], 1510 nM; in experiment [3], 3320 nM; in experiment [3] (listed as cisplatin), 3300 nM; with A549 (lung cancer cells), 6210 nM. Moreover, the IC50 was 6200 nM in the experiment on A549 (lung cancer cells) (listed as cisplatin) and 44000 nM in the experiment with A549-MCTSs (72 h, PrestoBlue, poly-HEMA coated wells). Also, the “Fold resistance (A2780cis/A2780)” value in [1] came to 6.93. In addition, the “IC50 fold higher than complex 3 in A549-MCTSs” value with A549-MCTSs (cisplatin vs complex 3) turned out to be 46 fold.
For `CC(C)c1cccc(C(C)C)c1-n1ccn(-c2c(C(C)C)cccc2C(C)C)[c]1=[Au-][P+](CC[P+]([Au-]=[c]1n(-c2c(C(C)C)cccc2C(C)C)ccn1-c1c(C(C)C)cccc1C(C)C)(c1ccccc1)c1ccccc1)(c1ccccc1)c1ccccc1` [Complex 1, [(Au(IPr))2(C26H24P2)](PF6)2], the IC50 with MCF-7 (breast cancer) was 170 nM; in [1], 330 nM; with MG-63 (osteosarcoma), 310 nM; in experiment [2], 280 nM; in experiment [3], 280 nM; in the experiment with A549 (lung cancer cells) it was 220 nM. Besides, the “Fold resistance (A2780cis/A2780)” value in [1] is 1.18.
For `CC(C)c1cccc(C(C)C)c1-n1ccn(-c2c(C(C)C)cccc2C(C)C)[c]1=[Au-][P+](CCC[P+]([Au-]=[c]1n(-c2c(C(C)C)cccc2C(C)C)ccn1-c1c(C(C)C)cccc1C(C)C)(c1ccccc1)c1ccccc1)(c1ccccc1)c1ccccc1` [Complex 2, [(Au(IPr))2(C27H26P2)](PF6)2], the IC50 came to 280 nM with MCF-7 (breast cancer); 450 nM in experiment [1]; 420 nM in the experiment on MG-63 (osteosarcoma); 280 nM in experiment [2]; 250 nM in experiment [3]; 260 nM in the experiment with A549 (lung cancer cells). Further, in [1], the “Fold resistance (A2780cis/A2780)” value amounted to 1.61.
Regarding `CC(C)c1cccc(C(C)C)c1-n1cc[n+](-c2c(C(C)C)cccc2C(C)C)[c]1[Au-][P+](C1CCCCC1)(C1CCCCC1)C1CCCCC1.ClC(Cl)Cl.F[P-](F)(F)(F)(F)F` [[Au(IPr)(Cy3P)]PF6·CHCl3], the “anti-proliferative activity in A2780 cells (comparison)” value in experiment [4] is on record as “more active”. For the same compound, the “anti-proliferative activity in A2780cis cells (comparison)” value in experiment [5] is recorded as “more active”.
